The values that follow come from US9714239B2, “N-phenyl-lactam derivatives capable of stimulating neurogenesis and their use in the treatment of neurological disorders” (Hoffmann-La Roche Inc., priority 2014, dated 2017).

This test relates to human embryonic stem cell derived neural stem cells (NSCs). Briefly: Neurogenesis assay: neural stem cell proliferation assay. The conditions noted are these: 96 h, compound concentration at which 150% activity of control (100%) is reached, increase in cells based on ATP levels (CellTiterGlo), 4 days incubation, dose response 8 μM to 8 nM. The method, then:
Neural Stem Cell Proliferation Assay
Neurogenic properties of small molecules are determined based on the proliferation of human embryonic stem cell derived neural stem cells (NSCs) which were derived via a dual smad inhibition as previously described (Chambers, S. M., et al., Highly efficient neural conversion of human ES and iPS cells by dual inhibition of SMAD signaling, Nature biotechnology, 2009 27(3): p. 275-80.).
Compounds response is measured by the increase in cells based on ATP levels (Promega:CellTiterGlo®) after an incubation period of 4 days. NSCs are thawed and expanded over 3 passages. On the 14th day, NSCs are seeded in Polyornithin/Laminin coated 384 well plates at a cell density of 21,000 cells/cm^2 in a media volume of 38 μl.
4 hours after cell seeding, compound solutions are added at a volume of 2 μl. Stock solutions of the compounds (water, 5% DMSO) are diluted to obtain a dose response (11 points, dilution factor is 2), ranging from 8 μM to 8 nM. Controls are run to consistently determine the neurogenic properties of the cells:
Negative (neutral) control is cell culture Media (final DMSO concentration: 0.25%).
1. cell culture Media+100 ng/ml FGF2 (final DMSO concentration: 0.1%)
2. cell culture Media+20 ng/ml EGF (final DMSO concentration: 0.1%)
3. cell culture Media+100 ng/ml Wnt3a (final DMSO concentration: 0.1%)
After 4 days incubation at 37° C., 5% CO2, the amount of ATP per well is quantified. The ATP concentration is proportional to the cell number. ATP is quantified by using the Promega CellTiterGlo® kit. The CellTiterGlo® reagents contain a cell lysis buffer, a thermo stable luciferase (UltraGlo™ recombinant luciferase), magnesium and luciferin. Luciferin reacts with ATP producing oxyluciferin, AMP and light. The luminescence signal is proportional to the ATP content.
The value of negative (neutral) control is determined for each assay plate by taking the average of 16 negative control wells. The neurogenic compound response is calculated for each compound as (compound/Negative Control)*100. The values of EC150 from the dose response curve are determined for each test compound. The EC150 is the compound concentration at which 150% activity of control (100%) is reached.

SMILES strings stand for the structures.

In turn, `CCC1(c2ccccc2)CCN(c2ccc(-c3cnco3)c(OC)c2)C1=O` (stereo not shown) [Example 1, 3-Ethyl-1-(3-methoxy-4-(oxazol-5-yl)phenyl)-3-phenylpyrrolidin-2-one] came in with an EC (150% of control) of 3.23 µM.
With `O=C1N(Cc2ccccc2)CCN1c1ccc(-c2ccncc2)cc1` [Example 2, 1-Benzyl-3-(4-(pyridin-4-yl)phenyl)imidazolidin-2-one] the figure was 1.04 µM; with `COc1cccc(C2CCN(c3ccc(-c4cnco4)c(OC)c3)C2=O)c1` (stereo not shown) [Example 3, 1-(3-Methoxy-4-oxazol-5-yl-phenyl)-3-(3-methoxyphenyl)pyrrolidin-2-one], 0.0814 µM.
Next, `COc1cc(N2CCC(c3ccccc3Cl)C2=O)ccc1-c1cnco1` (stereo not shown) [Example 4, 3-(2-Chlorophenyl)-1-(3-methoxy-4-oxazol-5-yl-phenyl)pyrrolidin-2-one]: 0.678 µM.
Regarding `COc1cc(N2CCCN(Cc3ccccc3)C2=O)ccc1-c1cn[nH]c1` [Example 5, 1-Benzyl-3-[3-methoxy-4-(1H-pyrazol-4-yl)phenyl]hexahydropyrimidin-2-one], the EC (150% of control) was 1.33 µM.
For `COc1cc(N2CCCN(Cc3ccccc3Cl)C2=O)ccc1-c1cn[nH]c1` [Example 6, 1-[(2-Chlorophenyl)methyl]-3-[3-methoxy-4-(1H-pyrazol-4-yl)phenyl]hexahydropyrimidin-2-one], the EC (150% of control) stood at 1.99 µM.
With `COc1cccc(CN2CCCN(c3ccc(-c4cn[nH]c4)c(OC)c3)C2=O)c1` [Example 7, 1-[(3-Methoxyphenyl)methyl]-3-[3-methoxy-4-(1H-pyrazol-4-yl)phenyl]hexahydropyrimidin-2-one] the figure was 0.114 µM; with `COc1cc(N2CCC(c3ccccc3)C2=O)ccc1-c1cnco1` (stereo not shown) [Example 8, 1-(3-Methoxy-4-oxazol-5-yl-phenyl)-3-phenyl-pyrrolidin-2-one], 0.471 µM.
Next, `COc1cc(N2CCN(Cc3ccccc3)C2=O)ccc1-c1cn[nH]c1` [Example 9, 1-Benzyl-3-[3-methoxy-4-(1H-pyrazol-4-yl)phenyl]imidazolidin-2-one]: 0.161 µM; `COc1cc(N2CCN(Cc3ccccc3Cl)C2=O)ccc1-c1cn[nH]c1` [Example 10, 1-[(2-Chlorophenyl)methyl]-3-[3-methoxy-4-(1H-pyrazol-4-yl)phenyl]imidazolidin-2-one]: 0.27 µM; `COc1cccc(CN2CCN(c3ccc(-c4cn[nH]c4)c(OC)c3)C2=O)c1` [Example 11, 1-[(3-Methoxyphenyl)methyl]-3-[3-methoxy-4-(1H-pyrazol-4-yl)phenyl]imidazolidin-2-one]: 0.0239 µM.
`COc1cc(N2CCC(c3ccccc3)C2=O)ccc1-c1cn[nH]c1` (stereo not shown) [Example 12, 1-[3-Methoxy-4-(1H-pyrazol-4-yl)phenyl]-3-phenyl-pyrrolidin-2-one]: the EC (150% of control) was determined as 0.0414 µM.
Next, `O=C1C(c2ccccc2)CCN1c1ccc(-c2cn[nH]c2)cc1` (stereo not shown) [Example 13, 3-Phenyl-1-[4-(1H-pyrazol-4-yl)phenyl]pyrrolidin-2-one]: 0.205 µM; `COc1cccc(C2CCN(c3ccc(-c4cn[nH]c4)cc3)C2=O)c1` (stereo not shown) [Example 14, 3-(3-Methoxyphenyl)-1-[4-(1H-pyrazol-4-yl)phenyl]pyrrolidin-2-one]: 0.0405 µM.
`O=C1C(c2ccc(Cl)cc2)CCN1c1ccc(-c2cn[nH]c2)cc1` (stereo not shown) [Example 15, 3-(4-Chlorophenyl)-1-[4-(1H-pyrazol-4-yl)phenyl]pyrrolidin-2-one] came in with an EC (150% of control) of 0.384 µM.
Next, `O=C1C(c2ccc(F)cc2)CCN1c1ccc(-c2cn[nH]c2)cc1` (stereo not shown) [Example 16, 3-(4-Fluorophenyl)-1-[4-(1H-pyrazol-4-yl)phenyl]pyrrolidin-2-one]: 0.0417 µM; `O=C1C(c2cccc(Cl)c2)CCN1c1ccc(-c2cn[nH]c2)cc1` (stereo not shown) [Example 17, 3-(3-Chlorophenyl)-1-[4-(1H-pyrazol-4-yl)phenyl]pyrrolidin-2-one]: 0.23 µM; `COc1cc(N2CCN(Cc3cccc(Cl)c3)C2=O)ccc1-c1cn[nH]c1` [Example 18, 1-[(3-Chlorophenyl)methyl]-3-[3-methoxy-4-(1H-pyrazol-4-yl)phenyl]imidazolidin-2-one]: 0.395 µM.
Next, `COc1cc(N2CCN(Cc3cccc(F)c3)C2=O)ccc1-c1cn[nH]c1` [Example 19, 1-[(3-Fluorophenyl)methyl]-3-[3-methoxy-4-(1H-pyrazol-4-yl)phenyl]imidazolidin-2-one]: 0.047 µM.
Next, `COc1cc(N2CCN(Cc3cccc(C(F)(F)F)c3)C2=O)ccc1-c1cn[nH]c1` [Example 20, 1-[3-Methoxy-4-(1H-pyrazol-4-yl)phenyl]-3-[[3-(trifluoromethyl)phenyl]methyl]imidazolidin-2-one]: 0.0086 µM; `COc1cc(N2CCN(Cc3cccc(OC(F)(F)F)c3)C2=O)ccc1-c1cn[nH]c1` [Example 21, 1-[3-Methoxy-4-(1H-pyrazol-4-yl)phenyl]-3-[[3-(trifluoromethoxy)phenyl]methyl]imidazolidin-2-one]: 0.0092 µM; `CCOc1cccc(CN2CCN(c3ccc(-c4cn[nH]c4)c(OC)c3)C2=O)c1` [Example 22, 1-[(3-Ethoxyphenyl)methyl]-3-[3-methoxy-4-(1H-pyrazol-4-yl)phenyl]imidazolidin-2-one]: 0.0739 µM.
`COc1cc(N2CCC(Cc3ccccc3)C2=O)ccc1-c1cn[nH]c1` (stereo not shown) [Example 23, 3-Benzyl-1-(3-methoxy-4-(1H-pyrazol-4-yl)phenyl)pyrrolidin-2-one] came in with an EC (150% of control) of 0.612 µM.
Next, `COc1cccc(C2CCN(c3ccc(-c4cn[nH]c4)c(OC)c3)C2=O)c1` (stereo not shown) [Example 24, 1-(3-Methoxy-4-(1H-pyrazol-4-yl)phenyl)-3-(3-methoxyphenyl)pyrrolidin-2-one]: 0.0299 µM; `COc1cc(N2CCC(c3cccc(Cl)c3)C2=O)ccc1-c1cn[nH]c1` (stereo not shown) [Example 25, 3-(3-Chlorophenyl)-1-(3-methoxy-4-(1H-pyrazol-4-yl)phenyl)pyrrolidin-2-one]: 0.0659 µM; `COc1cc(N2CCC(c3cccc(F)c3)C2=O)ccc1-c1cn[nH]c1` (stereo not shown) [Example 26, 3-(3-Fluorophenyl)-1-(3-methoxy-4-(1H-pyrazol-4-yl)phenyl)pyrrolidin-2-one]: 0.0776 µM.
Regarding `COc1cccc(CN2CCN(c3ccc(-c4cn[nH]c4)cc3)C2=O)c1` [Example 27, 1-[(3-Methoxyphenyl)methyl]-3-[4-(1H-pyrazol-4-yl)phenyl]imidazolidin-2-one], the EC (150% of control) is 0.294 µM.
With `COc1cccc(CN2CCN(c3ccc(-c4cn[nH]c4)c(C)c3)C2=O)c1` [Example 28, 1-[(3-Methoxyphenyl)methyl]-3-[3-methyl-4-(1H-pyrazol-4-yl)phenyl]imidazolidin-2-one] the figure was 1.22 µM; with `COc1cccc(CN2CCN(c3ccc(-c4cn[nH]c4)c(Cl)c3)C2=O)c1` [Example 29, 1-[3-Chloro-4-(1H-pyrazol-4-yl)phenyl]-3-[(3-methoxyphenyl)methyl]imidazolidin-2-one], 0.366 µM.
Next, `COc1cccc(CN2CCN(c3ccc(-c4cn[nH]c4)cc3F)C2=O)c1` [Example 30, 1-[2-Fluoro-4-(1H-pyrazol-4-yl)phenyl]-3-[(3-methoxyphenyl)methyl]imidazolidin-2-one]: 0.0416 µM; `COc1cccc(CN2CCN(c3ccc(-c4cn[nH]c4)c(F)c3)C2=O)c1` [Example 31, 1-[3-Fluoro-4-(1H-pyrazol-4-yl)phenyl]-3-[(3-methoxyphenyl)methyl]imidazolidin-2-one]: 0.0157 µM; `CCOc1cc(N2CCN(Cc3cccc(OC)c3)C2=O)ccc1-c1cn[nH]c1` [Example 32, 1-[3-Ethoxy-4-(1H-pyrazol-4-yl)phenyl]-3-[(3-methoxyphenyl)methyl]imidazolidin-2-one]: 0.835 µM.
With `COc1cc(N2CCN(Cc3ccccc3F)C2=O)ccc1-c1cn[nH]c1` [Example 33, 1-[(2-Fluorophenyl)methyl]-3-[3-methoxy-4-(1H-pyrazol-4-yl)phenyl]imidazolidin-2-one] the figure was 0.225 µM.
`COc1cc(N2CCN(Cc3ccccc3C)C2=O)ccc1-c1cn[nH]c1` [Example 34, 1-[3-Methoxy-4-(1H-pyrazol-4-yl)phenyl]-3-(o-tolylmethyl)imidazolidin-2-one] had an EC (150% of control) of 0.2 µM.
